Test results published in US20250295619A1, “Use of Salvianolic Acid E in the Preparation of Drugs Targeting Senescent Cells, Inhibiting Tumors or Extending Lifespan” (Shanghai Institute of Nutrition and Health, Chinese Academy …, priority 2024, published 2025).
Entries after “also recorded” stand apart in the source; their conditions may differ.

Experiments:
[1] = system: PC3/PSC27 transplanted tumors; assay: PC3/PSC27 xenograft tumor volume in NOD/SCID mice; assay type: in vivo, mouse; details: for effect on tumor volume of chemotherapeutic drug combined with SAE: combination with SAE vs chemotherapeutic drug alone; for effect on tumors when combined with MIT: combination with MIT vs MIT alone
Description: Every two weeks was a dosing cycle, and MIT (mitoxantrone) was intraperitoneally administered to the mice on the first day of the 3rd/5th/7th weeks. From the first day of the 5th week, the mice were intraperitoneally administered with SAE, […]. After the 8-week course of treatment, the mice were dissected for pathological identification and expression analysis.
All experimental mouse experiments were carried out in strict accordance with the relevant regulations of the Institutional Animal Care and Use Committee (IACUC), Shanghai Institutes for Biological Sciences, Chinese Academy of Sciences. Immuno-deficient mice (NOD-SCID mice, ICR) (body weight about 25 g) aged 6-8 weeks were used for animal experiments related to the present patent. Stromal cells PSC27 and epithelial cells PC3 were mixed at a predetermined ratio of 1:4, and each graft contained 1.25×10^6 cells for tissue remodeling. The xenograft tumors were implanted into mice by subcutaneous transplantation, and the animals were euthanized 8 weeks after the end of the transplantation surgery. Tumor volume was calculated according to the following formula: V=(π/6)×((1+w)/2)3 (V, volume; l, length; w, width).
(§1) In a preclinical treatment trial, subcutaneously transplanted mice were fed with a standard experimental diet, after 2 weeks chemotherapy drugs mitoxantrone (MIT, dose: 0.2 mg/kg) and/or SAE (500 μl, dose: 10 mg/kg) via intraperitoneal administration. The time points were: the former was administrated on the first day of the 3rd, 5th and 7th weeks, and the latter was administrated on the first day of the 5th and 7th weeks. A total of 3 cycles of MIT administration were carried out throughout the course of treatment, and each cycle lasted for 2 weeks. After the course of treatment, mouse tumors were harvested for volume measurement and histological analysis. Each mouse cumulatively received 0.6 mg/kg body weight of MIT and 30 mg/kg body weight of SAE. In order to cause systemic expression of SASP factors induced by chemotherapy, MIT was administered to mice through intravenous infusion according to the above steps and sequence, but the dose was reduced to 0.1 mg/kg body weight/each time (the cumulative dose of MIT received in the whole course of treatment was 0.3 mg/kg body weight) to reduce drug-related toxicity. The chemotherapy experiment ended at the end of the 8th week, and the mice were dissected immediately after sacrifice, and the xenograft tumors were collected and used for pathological system analysis.

[2] = system: PSC27; assay: Caspase 3/7 apoptosis detection in senescent PSC27 cells (IncuCyte); assay type: cell-based, human; details: 20 μM QVD-OPh, 200 μM SAE
Description: PSC27 cells gradually entered the senescent stage after being treated with BLEO for 12 hours under culture conditions. 200 μM SAE was added to the medium of senescent cells starting from day 7, NucLight Rapid Red reagent was used to label the cells and caspase 3/7 reagent (IncuCyte) was used for apoptosis detection. Caspase 3/7 activity was detected every 4 hours (n=3).
Statistical differences are obtained by two-way ANOVA (Turkey'test).
PSC27 cells were plated in a 96-well dish, and the cells were induced to senescence under 50 μg/ml of BLEO treatment. SAE and ABT263 were added at concentrations of 200 μM and 1.25 μM, respectively. Cell culture medium was supplemented with Incucyte Nuclight fast Red Reagent (Essen Bioscience) and Incucyte C-3/7 Apoptosis Reagent (Essen Bioscience). Representative field of view was selected to take pictures.

[3] = system: PSC27; assay: SA-β-Gal staining of PSC27 cells (bleomycin-induced senescence, increasing SAE concentration); assay type: cell-based, human; details: PSC27 treated with bleomycin 50 μg/ml, vs control cells
Description: The P value of positive proportion of cells in these experimental groups for SAE at the concentrations of 100 μM, 200 μM, 400 μM, 800 μM, 1600 μM, 2000 μM and 3000 μM are statistically significant compared with the data at 0 μM.
(§2) To cause cell damage, 50 μg/mL bleomycin (bleomycin, BLEO) was added to the culture medium when PSC27 cells grew to 80% (abbreviated as PSC27-CTRL). After 12 hours of drug treatment, the cells were simply washed 3 times with PBS, left in the culture medium for 7-10 days, and then the subsequent experiments were performed.
Senescence-associated B-galactosidase (SA-β-Gal) staining was performed following a previously reported procedure (Debacq-Chainiaux, et. al., 2009). Briefly, cells in culture dishes were washed with PBS and fixed at room temperature. Cells were fixed in 2% formaldehyde and 0.2% glutaraldehyde for 3 minutes. SA-β-Gal was used for staining with freshly prepared staining solution overnight at 37° C. Images were taken on the next day and the percentage of positive cells per unit area was calculated.

[4] = system: PSC27; assay: BrdU and γH2AX immunofluorescence staining of PSC27 cells after bleomycin; assay type: cell-based, human; details: PSC27 treated with bleomycin
Description: as §2
For immunofluorescent staining, target cells were pre-seeded on a coverslip for at least 24 h after culture in dishes. After a brief wash, the cells were fixed with 4% paraformaldehyde in PBS for 8 min and blocked with 5% normal goat serum (NGS, Thermo Fisher) for 30 min. Mouse monoclonal antibody-anti-phospho-Histone H2A.X (Ser139) (clone JBW301, Millipore) and mouse monoclonal antibody-anti-BrdU (Cat #347580, BD Biosciences), and secondary antibody Alexa Fluor®488 (or 594)-conjugated F (ab′) 2 were sequentially added to the slides coated with the fixed cells. Nuclei were counterstained with 2 μg/ml of 4′, 6-diamidino-2-phenylindole (DAPI). The most representative image was selected from the three observation fields for data analysis and result display. FV1000 laser scanning confocal microscope (Olympus) was used to acquire confocal fluorescent images of cells.

[5] = system: senescent cells in tumor tissue; assay: SA-β-Gal staining of tumor tissues of PC3/PSC27 tumor-bearing mice; assay type: in vivo, mouse; details: MIT alone
Description: Representative pictures after SA-β-Gal staining. Scale bar, 100 μm.
as §1

[6] = system: SASP factors; assay: LCM and qRT-PCR of SASP factors in mouse lesions; assay type: in vivo; details: after MIT administration
Description: The stromal cells and cancer cells were specifically separated by LCM technology, total RNA was prepared and used for SASP expression detection. ^, P>0.05; *, P<0.05; **, P<0.01.
as §1, with “The chemotherapy experiment ended at the end of the 8th week, and the mice were dissected immediately after sacrifice, and the xenograft tumors were collected and used for pathological system analysis.” left out

[7] = system: PC3/PSC27 tumors; assay: DNA damage and apoptosis in tumors of treated mice; assay type: in vivo, mouse; details: single agent compared with placebo, 7 days after first SAE administration
From the text: To investigate mechanisms directly supporting this senescence-associated pattern with expression and reversal of SASP in MIT-administered mice, the inventors dissected tumors in animals treated with both drugs 7 days after the first SAE administration, and the time point of 7 days after administration was selected mainly because drug-resistant clones had not yet formed in cancer cells in the lesion at this time. […] As supporting evidence, when SAE was applied during treatment, caspase 3 cleavage activity was increased, which was a typical hallmark of apoptosis (FIG. 29).

COc1cccc2c1C(=O)c1c(O)c3c(c(O)c1C2=O)C[C@@](O)(C(=O)CO)C[C@@H]3O[C@H]1C[C@H](N)[C@H](O)[C@H](C)O1 [DOX, doxorubicin]
effect on tumor volume of chemotherapeutic drug combined with SAE [1]: roughly repeat the significant effect

salvianolic acid J [SAJ]
effect on tumors when combined with MIT [1]: no significant effects

CC(C)[C@H](NC(=O)c1ccc2ccccc2n1)C(=O)N[C@@H](CC(=O)O)C(=O)COc1c(F)cccc1F [QVD, reference compound]
effect of pan-caspase inhibitor on killing of senescent cells by SAE [2]: could prevent the killing of senescent cells by SAE

bleomycin
positive rate of senescence-associated β-galactosidase (SA-β-Gal) staining [3]: significant increase
BrdU incorporation rate ([4]; vs control cells): greatly reduced
DNA damage repair foci (DDR foci) ([4]; γH2AX staining): significantly increased
effect on tumor volume of chemotherapeutic drug combined with SAE [1]: roughly repeat the significant effect

O=C(/C=C/c1ccc(O/C(=C\c2ccc(O)c(O)c2)C(=O)O)c(O)c1)OC(Cc1ccc(O)c(O)c1)C(=O)O (stereo not shown) [SAI, salvianolic acid I]
effect on tumors when combined with MIT [1]: no significant effects

CC(=O)O[C@@]12CO[C@@H]1C[C@H](O)[C@@]1(C)C(=O)[C@H](O)C3=C(C)[C@@H](OC(=O)[C@H](O)[C@@H](NC(=O)OC(C)(C)C)c4ccccc4)C[C@@](O)([C@@H](OC(=O)c4ccccc4)[C@H]21)C3(C)C [DOC, docetaxel]
effect on tumor volume of chemotherapeutic drug combined with SAE [1]: no further tumor shrinkage
tumor volume when chemotherapeutic drug used alone [1]: reduce the tumor volume

O=C1c2c(O)ccc(O)c2C(=O)c2c(NCCNCCO)ccc(NCCNCCO)c21 [MIT, mitoxantrone]
reduction in tumor size compared to placebo-treated group ([1]; single agent, end of 8 weeks): 44.1%
senescent cells in the tumor tissue after MIT administration [5]: induced the appearance of a large number of senescent cells
expression of SASP factors in lesions (mainly stromal cells) [6]: significantly increased; also recorded: significantly elevated expression
degree of DNA damage and apoptosis [7]: significant increase

CC[C@]1(O)C[C@H]2CN(CCc3c([nH]c4ccccc34)[C@@](C(=O)OC)(c3cc4c(cc3OC)N(C=O)[C@H]3[C@@](O)(C(=O)OC)[C@H](OC(C)=O)[C@]5(CC)C=CCN6CC[C@]43[C@@H]65)C2)C1 [VIN, vincristine]
effect on tumor volume of chemotherapeutic drug combined with SAE [1]: no further tumor shrinkage
tumor volume when chemotherapeutic drug used alone [1]: reduce the tumor volume
